Test [1] deals with adenosine uptake into HeLa cells. The test can be described thus: [3H]Adenosine uptake assay in HeLa cells. It counts as cell-based. The following applies: [3H]adenosine accumulation in HeLa cells, compound range 10 μM to 0.032 nM, read-out: ADU inhibition IC50. On the procedure:
Compounds are also screened in an adenosine uptake functional cellular assay using the protocol described below:
[^3H]Adenosine Uptake Assay Methods
Adenosine uptake activity was determined by monitoring the accumulation of tritiated adenosine into HeLa cells (ATCC catalog # CCL-2) using a PMT-based radiometric detection instrument. In this assay, the potency (IC50) of each compound was determined from a ten point (1:3 serial dilution; final compound concentration range in assay from 10 µM to […]) titration curve using the following outlined procedure. To each well of a 96-well CytoStar-T scintillating microplate (Perkin Elmer Catalog # RPNQ0163), 25 000 HeLa cells in 100 µL of growth medium comprising: Minimum Essential Media (Life Technologies Catalog #11095-080)+10% (v/v) foetal bovine serum (FBS; Sigma Aldrich Catalog # F2442) was added. These cells were incubated overnight at 37° C. in a humidified atmosphere with 5% (v/v) CO2. After this time the growth medium was removed and replaced with 40 μL assay medium comprising: Hanks balanced salts solution (HBSS; Thermo Fisher Catalog # SH30268.01)+5% (v/v) FBS. Compound stock solutions in DMSO were diluted in assay medium to 2.5× final compound concentration maintaining a constant DMSO concentration of 0.25% (v/v). 40 μL of compound in assay medium was dispensed into individual wells of the Cytostar-T plates and the plates were incubated for 30 minutes under ambient laboratory conditions. Following this incubation, 20 μL of 500 nM [^3H] adenosine (American Radiolabeled Chemicals Inc. […] The amount of radiolabel accumulation was then determined using a Perkin Elmer Topcount NXT microplate reader. In brief, HeLa cells adhere to the bottom of the Cytostar-T plate, uptake of [^3H]adenosine into these cells brings the radiolabel into sufficient proximity to excite the scintillant in the base of the plates. These events are captured by single PMT, time-resolved coincidence counting. IC50 values were determined by 4 parameter robust fit of counts per second values vs. (Log10) compound concentrations.

In test [2] the target is BTK enzyme (recombinant full-length BTK, hBTK) (Homo sapiens (Human), UniProt Q06187). As to the kind of experiment: BTK enzymatic activity LANCE TR-FRET assay. Type of test: biochemical. The following applies: 50 pM hBTK, 25 μM ATP, 2 μM biotin-A5-peptide; compound range 1 μM to 0.017 nM; read-out: BTK binding IC50. On the procedure: Btk Enzyme Activity Assay Methods
Sequence of BTK enzyme (recombinant full-length BTK, hBTK) (Q06187 whole entry): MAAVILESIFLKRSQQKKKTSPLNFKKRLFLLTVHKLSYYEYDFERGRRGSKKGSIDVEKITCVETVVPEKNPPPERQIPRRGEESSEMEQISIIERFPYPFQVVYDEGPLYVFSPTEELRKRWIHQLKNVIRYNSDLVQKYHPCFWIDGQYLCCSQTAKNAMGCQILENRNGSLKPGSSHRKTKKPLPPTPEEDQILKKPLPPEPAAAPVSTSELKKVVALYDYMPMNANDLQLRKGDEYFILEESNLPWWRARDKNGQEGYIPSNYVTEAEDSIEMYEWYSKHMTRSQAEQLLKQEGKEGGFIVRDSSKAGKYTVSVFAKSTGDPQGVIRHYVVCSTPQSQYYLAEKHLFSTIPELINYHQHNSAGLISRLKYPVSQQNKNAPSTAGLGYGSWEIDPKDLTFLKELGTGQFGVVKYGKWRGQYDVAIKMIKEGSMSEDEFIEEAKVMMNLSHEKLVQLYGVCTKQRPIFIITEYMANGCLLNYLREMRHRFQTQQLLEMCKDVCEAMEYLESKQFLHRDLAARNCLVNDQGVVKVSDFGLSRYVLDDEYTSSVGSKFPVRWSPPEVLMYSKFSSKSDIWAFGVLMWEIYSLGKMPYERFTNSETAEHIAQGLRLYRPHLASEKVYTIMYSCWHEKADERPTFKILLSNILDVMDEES
BTK enzymatic activity was determined with the LANCE (Lanthanide Chelate Excite) TR-FRET (Time-resolved fluorescence resonance energy transfer) assay. […] Phosphorylation reactions were allowed to proceed for 120 minutes. […] After 60 minutes incubation with detection reagents, reaction plates were read on a PerkinElmer EnVision plate reader using standard TR-FRET protocol. […] IC50 values were determined by 4 parameter robust fit of TR-FRET ratio values vs. (Log10) compound concentrations.
(In general: TR-FRET usually uses a lanthanide donor and a delayed reading to cut background.)

Among the data in patent publication US10214546B2, “Btk inhibitors” (MERCK SHARP & DOHME CORP., priority 2014, dated 2019) are IC50 values, retold here.

pIC50: −log10 of the molar value. Like-named read-outs stand apart in the source and are kept apart here.

What is called pIC50 is −log10 of the IC50, conventionally taken in molar units.

Consider `Cc1cc(-c2nc([C@@H]3CC[C@H]4CCC(=O)N4C3)n3ccnc(N)c23)ccc1C(C)(O)c1cccc(C(F)(F)F)c1` (stereo partly drawn) [Example 43, (6R,8aS)-6-[8-amino-1-(4-{1-hydroxy-1-[3-(trifluoromethyl)phenyl]ethyl}-3-methylphenyl)imidazo [1,5-a]pyrazin-3-yl]hexahydroindolizin-3(2H)-one], for which the pIC50 in test [1] is 6.27; in test [2], 6.00.

On to `COc1cccc([C@@](C)(O)c2ccc(-c3nc([C@@H]4CC[C@H]5CCC(=O)N5C4)n4ccnc(N)c34)cc2)c1` [Example 44, (6R,8aS)-6-(8-amino-1-{4-[(1S)-1-hydroxy-1-(3-methoxyphenyl)ethyl]phenyl}imidazo[1,5-a]pyrazin-3-yl)hexahydroindolizin-3(2H)-one], for which the pIC50 was 5.75 in test [1] (Homo sapiens, HeLa) and 7.09 in test [2].

As for `COc1cccc([C@](C)(O)c2ccc(-c3nc([C@@H]4CC[C@H]5CCC(=O)N5C4)n4ccnc(N)c34)cc2)c1` [Example 45, (6R,8aS)-6-(8-amino-1-{4-[(1R)-1-hydroxy-1-(3-methoxyphenyl)ethyl]phenyl}imidazo[1,5-a]pyrazin-3-yl)hexahydroindolizin-3(2H)-one], the pIC50 in test [1] (Homo sapiens, HeLa) was 5.56; in test [2], 8.96.

With `Cc1cccc([C@](C)(O)c2ccc(-c3nc([C@@H]4CC[C@H]5CCC(=O)N5C4)n4ccnc(N)c34)cc2)c1` [Example 46, (6R,8aS)-6-(8-amino-1-(4-[(1R)-1-hydroxy-1-(3-methylphenyl)ethyl]phenyl}imidazo[1,5-a]pyrazin-3-yl)hexahydroindolizin-3(2H)-one], the pIC50 in test [1] (Homo sapiens, HeLa) was 5.49; in test [2] it was 9.64.

Take `Cc1ccccc1[C@@](C)(O)c1ccc(-c2nc([C@@H]3CC[C@H]4CCC(=O)N4C3)n3ccnc(N)c23)cc1` [Example 47, (6R,8aS)-6-(8-amino-1-{4-[(1S)-1-hydroxy-1-(2-methylphenyl)ethyl]phenyl}imidazo[1,5-a]pyrazin-3-yl)hexahydroindolizin-3(2H)-one]: the pIC50 was 5.69 in test [1] (Homo sapiens, HeLa) and 6.74 in test [2].

Take `Cc1ccccc1[C@](C)(O)c1ccc(-c2nc([C@@H]3CC[C@H]4CCC(=O)N4C3)n3ccnc(N)c23)cc1` [Example 48, (6R,8aS)-6-(8-amino-1-{4-[(1R)-1-hydroxy-1-(2-methylphenyl)ethyl]phenyl}imidazo[1,5-a]pyrazin-3-yl)hexahydroindolizin-3(2H)-one]: the pIC50 was 5.48 in test [1] (Homo sapiens, HeLa) and 8.60 in test [2].

Consider `COc1ccccc1[C@@](C)(O)c1ccc(-c2nc([C@@H]3CC[C@H]4CCC(=O)N4C3)n3ccnc(N)c23)cc1` [Example 49, (6R,8aS)-6-(8-amino-1-{4-[(1S)-1-hydroxy-1-(2-methoxyphenyl)ethyl]phenyl}imidazo[1,5-a]pyrazin-3-yl)hexahydroindolizin-3(2H)-one], for which the negative logarithm of the IC50 (pIC50) was 5.53 in test [1] (Homo sapiens, HeLa) and 7.34 in test [2].

As for `COc1ccccc1[C@](C)(O)c1ccc(-c2nc([C@@H]3CC[C@H]4CCC(=O)N4C3)n3ccnc(N)c23)cc1` [Example 50, (6R,8aS)-6-(8-amino-1-{4-[(1R)-1-hydroxy-1-(2-methoxyphenyl)ethyl]phenyl}imidazo[1,5-a]pyrazin-3-yl)hexahydroindolizin-3(2H)-one], the pIC50 in test [1] (Homo sapiens, HeLa) was 5.91; in test [2], 6.61.

As to `C[C@](O)(c1ccc(-c2nc([C@@H]3CC[C@H]4CCC(=O)N4C3)n3ccnc(N)c23)cc1)c1cccc(C2CC2)c1` [Example 51, (6R,8aS)-6-(8-amino-1-{4-[(1S)-1-(3-cyclopropylphenyl)-1-hydroxyethyl]phenyl}imidazo[1,5-a]pyrazin-3-yl)hexahydroindolizin-3(2H)-one], the pIC50 in test [1] (Homo sapiens, HeLa) was 6.25; in test [2], 8.23.

As for `C[C@@](O)(c1ccc(-c2nc([C@@H]3CC[C@H]4CCC(=O)N4C3)n3ccnc(N)c23)cc1)c1cccc(Cl)c1` [Example 52, (6R,8aS)-6-(8-amino-1-{4-[(1R)-1-(3-chlorophenyl)-1-hydroxyethyl]phenyl}imidazo[1,5-a]pyrazin-3-yl)hexahydroindolizin-3(2H)-one], the pIC50 was 5.42 in test [1] (Homo sapiens, HeLa) and 9.33 in test [2].

`Cc1cccc([C@@](C)(O)c2ccc(-c3nc([C@@H]4CC[C@H]5CCC(=O)N5C4)n4ccnc(N)c34)cc2)c1` [Example 53, (6R,8aS)-6-(8-amino-1-{4-[(1S)-1-hydroxy-1-(3-methylphenyl)ethyl]phenyl}imidazo[1,5-a]pyrazin-3-yl)hexahydroindolizin-3(2H)-one]: the pIC50 in test [1] (Homo sapiens, HeLa) was 6.17; in test [2] it was 8.19.

As for `CC(O)(c1cccc(C(F)(F)F)c1)c1ccc(-c2nc([C@@H]3CC[C@H]4CCC(=O)N4C3)n3ccnc(N)c23)cc1F` (stereo partly drawn) [Example 54, (6R,8aS)-6-[8-amino-1-(3-fluoro-4-{1-hydroxy-1-[3-(trifluoromethyl)phenyl]ethyl}phenyl)imidazo [1,5-a]pyrazin-3-yl]hexahydroindolizin-3(2H)-one], the results for the pIC50 in test [1] and in test [2] were 6.32 and 6.00, respectively.

As for `CCC(O)(c1ccc(-c2nc([C@@H]3CC[C@H]4CCC(=O)N4C3)n3ccnc(N)c23)cc1)c1cccc(C(F)(F)F)c1` (stereo partly drawn) [Example 55, (6R,8aS)-6-[8-amino-1-(4-{1-hydroxy-1-[3-(trifluoromethyl)phenyl]propyl}phenyl)imidazo [1,5-a]pyrazin-3-yl]hexahydroindolizin-3(2H)-one], the results for the pIC50 in test [1] and in test [2] were 6.40 and 6.00, respectively.

Consider `C[C@](O)(c1ccc(-c2nc([C@@H]3CC[C@H]4CCC(=O)N4C3)n3ccnc(N)c23)cc1)c1cccc(OC(F)(F)F)c1` [Example 56, (6R,8aS)-6-[8-amino-1-(4-{(1S)-1-hydroxy-1-[3-(trifluoromethoxy)phenyl]ethyl}phenyl)imidazo [1,5-a]pyrazin-3-yl]hexahydroindolizin-3(2H)-one], for which the pIC50 in test [1] (Homo sapiens, HeLa) is 6.05; in test [2] it was 6.23.

With `C[C@@](O)(c1ccc(-c2nc([C@@H]3CC[C@H]4CCC(=O)N4C3)n3ccnc(N)c23)cc1)c1cccc(OC(F)(F)F)c1` [Example 57, (6R,8aS)-6-[8-amino-1-(4-{(1R)-1-hydroxy-1-[3-(trifluoromethoxy)phenyl]ethyl}phenyl)imidazo [1,5-a]pyrazin-3-yl]hexahydroindolizin-3(2H)-one], the pIC50 in test [1] (Homo sapiens, HeLa) was 5.48; in test [2], 9.06.

Consider `C[C@](O)(c1ccc(-c2nc([C@@H]3CC[C@H]4CCC(=O)N4C3)n3ccnc(N)c23)cc1)c1cccc(-c2ccccc2)c1` [Example 58, (6R,8aS)-6-(8-amino-1-{4-[(1S)-1-biphenyl-3-yl-1-hydroxyethyl]phenyl}imidazo[1,5-a]pyrazin-3-yl)hexahydroindolizin-3(2H)-one], for which the pIC50 in test [1] (Homo sapiens, HeLa) is 6.35; in test [2] it was 7.20.

`C[C@@](O)(c1ccc(-c2nc([C@@H]3CC[C@H]4CCC(=O)N4C3)n3ccnc(N)c23)cc1)c1cccc(-c2ccccc2)c1` [Example 59, (6R,8aS)-6-(8-amino-1-{4-[(1R)-1-biphenyl-3-yl-1-hydroxyethyl]phenyl}imidazo[1,5-a]pyrazin-3-yl)hexahydroindolizin-3(2H)-one]: the pIC50 in test [1] (Homo sapiens, HeLa) was 5.90; in test [2] it was 9.03.

In the case of `CC(O)(c1cccc(C(F)(F)F)c1)c1ccc(-c2nc([C@@H]3CC[C@H]4CCC(=O)N4C3)n3ccnc(N)c23)cc1F` (stereo partly drawn) [Example 60, (6R,8aS)-6-[8-amino-1-(3-fluoro-4-{1-hydroxy-1-[3-(trifluoromethyl)phenyl]ethyl}phenyl)imidazo [1,5-a]pyrazin-3-yl]hexahydroindolizin-3(2H)-one], the pIC50 was 5.47 in test [1] and 7.44 in test [2].

Consider `CCC(O)(c1ccc(-c2nc([C@@H]3CC[C@H]4CCC(=O)N4C3)n3ccnc(N)c23)cc1)c1cccc(C(F)(F)F)c1` (stereo partly drawn) [Example 61, (6R,8aS)-6-[8-amino-1-(4-{1-hydroxy-1-[3-(trifluoromethyl)phenyl]propyl}phenyl)imidazo [1,5-a]pyrazin-3-yl]hexahydroindolizin-3(2H)-one], for which the figures for the pIC50 in test [1] and in test [2] were 5.77 and 7.14, respectively.
